Values after ≈ are worked out from the molar mass of the structure shown. Like-named read-outs stand apart in the source and are kept apart here.
Assays:
[1] = system: COX1 in HepG2 cells; assay: Mitochondrial protein synthesis assay, COX1 level; assay type: cell-based; conditions: Homo sapiens, 168 h; HepG2, 7 days; read-out: Mean EC50 ± SD COX1
Procedure: (§1) The human liver carcinoma-derived HepG2 cell line was obtained from the ATCC (ATCC HB-8065). HepG2 cells were grown in Dulbecco's modified Eagle's medium containing 10% fetal calf serum, 1 mM sodium pyruvate, 0.1 mM essential amino acids, and 50 U/ml penicillin-streptomycin at 37°C with 5% CO2. HepG2 cells were seeded into 96-well plates at 3,000 cells/200 μl/well in cell culture medium. Cells were then grown in the presence of the compounds at 37°C in 10% CO2 for 7 days in at least duplicate concentrations, with the medium and compounds being replaced on the fourth day. After 7 days, the levels of SDHA (subunit A of the succinate dehydrogenase complex) and COX1 (cytochrome c oxidase) were determined by using the MitoSciences In-Cell enzyme-linked immunosorbent assay (ELISA) kit. Janus green staining was used to determined cell viability after 7 days (In-Cell ELISA kit, catalog number MS643).

[2] = system: M. tuberculosis H37Rv; assay: MIC for M. tuberculosis H37Rv (resazurin/alamarBlue); assay type: cell-based, Mycobacterium tuberculosis; conditions: for MIC: Mycobacterium tuberculosis, H37RV, read-out: MIC M.tb H37Rv
[3] = system: HepG2 cells; assay: HepG2 cell viability (Janus green staining); assay type: cell-based; conditions: Homo sapiens, 168 h, HepG2, 7 days, read-out: Mean EC50 ± SD Cell viability
Procedure: as §1

[4] = in vivo; conditions: 30 mg/kg; for α-t1/2 % AUC / β-t1/2 % AUC: i.v.; for AUC(0-inf) / Cmax / MRT / Vd / clearance / half-life / AUC(0-t) / Tmax / bioavailability: in vivo
Procedure: Mouse pharmacokinetic studies were conducted by using female CD-1 mice for compounds 1, 11, and 12, while BALB/c mice were used for compound 13. Mouse body weights were 19 to 28 g, and on the morning of dosing, mice were split randomly into 3 dosing groups to receive the test article by either intravenous (i.v.) tail vein injection or oral (p.o.) gavage. After dosing, blood samples were collected via cardiac puncture at specific time points (n = 3 mice/time point) through 24 h (K2EDTA as an anticoagulant) and processed for plasma. Antibiotic concentrations in the plasma samples were analyzed by liquid chromatography-tandem mass spectrometry (LC-MS/MS). The LC-MS/MS analysis was conducted by using analyte/internal standard peak area methods. The internal standard was AN3365 ([21]), and the instrument used was an API4000 QTRAP instrument (AB Sciex). The limit of quantitation (LOQ) was 1 or 2 ng/ml. Pharmacokinetic analyses of the mean plasma concentration-time profiles were performed by using WinNonlin Pro version 5.2. A compartmental model was used for the data for i.v. dosing, and a noncompartmental model was used for the data for p.o. dosing. […] Compounds 1 and 13 were formulated in saline (0.9% [wt/vol] NaCl) at 7.5 mg/ml, and the pH was adjusted to >5 by the addition of NaOH. Compound 11 was formulated to 6.5 mg/ml in water-dimethylacetamide-ethanol (EtOH) (76:19:5), and the pH was adjusted to >5 by the addition of NaOH. Compound 12 was formulated to 7.5 mg/ml in PEG 300-propylene glycol (PG)-water (55:25:20), and the pH was adjusted to >5 by the addition of NaOH.

[5] = in vitro; assay type: in vitro ADME; conditions: mouse plasma, 1 and 10 µg/ml, ultrafiltration; read-out: Mouse PPB (converted)
Procedure: Compounds were added to 1.5-ml aliquots of mouse plasma at concentrations of 1 and 10 µg/ml and then incubated in a shaking water bath at 37°C for 15 min. Both samples were treated similarly, and a 0.5-ml aliquot was removed from each tube and added to the filter reservoir of Microcon centrifugal filter devices (Ultracel YM-30 with a molecular mass cutoff of 30 kDa). The devices were centrifuged at 1,000 × g for 10 min, and 100 μl of the filtrate was transferred to a 96-well plate and diluted 5-fold. Ten-microliter volumes of the samples were injected and analyzed with the LC-MS/MS system. All samples were analyzed in duplicate. Quantitation was based on the peak area ratio of the analyte over the internal standard, and all integrations were performed with peak areas by using Analyst version 1.4.1 (Applied Biosystems, Foster City, CA, USA). Plasma protein binding was calculated based on the following equation: Plasma Protein Binding (%)=(PeakAreaPlasma UltrafilrateSpiked−PeakAreaPlasmaFiltrate)/PeakAreaPlasma UltrafiltrateSpiked×100

[6] = system: SDHA in HepG2 cells; assay: Mitochondrial protein synthesis assay, SDHA level; assay type: cell-based; conditions: Homo sapiens, 168 h; HepG2, 7 days; read-out: Mean EC50 ± SD SDHA
Procedure: as §1

[7] = target: M. tuberculosis LeuRS editing domain (Mycobacterium tuberculosis, UniProt P9WFV1); assay: biochemical; assay type: binding
Chain of M. tuberculosis LeuRS editing domain (P9WFV1 309-513): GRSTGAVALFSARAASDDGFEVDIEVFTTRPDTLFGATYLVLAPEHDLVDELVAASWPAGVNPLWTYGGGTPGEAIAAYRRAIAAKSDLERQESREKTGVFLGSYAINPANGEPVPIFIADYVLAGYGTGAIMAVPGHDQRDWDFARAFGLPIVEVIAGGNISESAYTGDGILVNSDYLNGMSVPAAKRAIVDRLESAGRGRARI

[8] = target: M. tuberculosis LeuRS (Mycobacterium tuberculosis, UniProt P9WFV1); assay: biochemical; design: species or system M. tuberculosis H37Rv
Chain of M. tuberculosis LeuRS (P9WFV1 whole entry): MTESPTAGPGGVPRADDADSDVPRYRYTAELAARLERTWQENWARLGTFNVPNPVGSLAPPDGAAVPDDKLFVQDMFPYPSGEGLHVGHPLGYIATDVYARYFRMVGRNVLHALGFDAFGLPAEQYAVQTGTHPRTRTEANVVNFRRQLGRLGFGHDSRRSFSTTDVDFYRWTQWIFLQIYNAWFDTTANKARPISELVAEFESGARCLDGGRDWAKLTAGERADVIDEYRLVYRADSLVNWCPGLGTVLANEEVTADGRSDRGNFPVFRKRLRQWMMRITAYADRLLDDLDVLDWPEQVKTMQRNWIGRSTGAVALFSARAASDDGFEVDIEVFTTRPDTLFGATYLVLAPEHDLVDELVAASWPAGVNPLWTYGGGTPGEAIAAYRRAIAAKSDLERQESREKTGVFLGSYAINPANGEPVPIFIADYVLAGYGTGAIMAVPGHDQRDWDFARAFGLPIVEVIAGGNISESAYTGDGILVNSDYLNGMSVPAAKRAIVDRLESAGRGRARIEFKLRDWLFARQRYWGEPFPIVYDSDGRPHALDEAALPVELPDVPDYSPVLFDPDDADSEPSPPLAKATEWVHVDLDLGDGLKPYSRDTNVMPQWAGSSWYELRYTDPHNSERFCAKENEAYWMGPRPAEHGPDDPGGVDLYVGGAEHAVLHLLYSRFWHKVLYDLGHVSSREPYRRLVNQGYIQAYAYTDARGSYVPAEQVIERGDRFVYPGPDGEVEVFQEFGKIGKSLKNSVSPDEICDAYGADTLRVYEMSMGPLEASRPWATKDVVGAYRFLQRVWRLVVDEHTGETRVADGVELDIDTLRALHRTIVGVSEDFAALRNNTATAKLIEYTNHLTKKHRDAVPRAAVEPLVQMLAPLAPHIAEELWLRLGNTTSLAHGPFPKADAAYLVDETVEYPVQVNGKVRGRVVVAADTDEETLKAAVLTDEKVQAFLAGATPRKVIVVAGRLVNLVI

[9] = system: M. smegmatis ATCC 700084 and leuS resistant mutants; assay: Liquid culture MIC for compound 1-resistant M. smegmatis mutants; assay type: cell-based, Mycobacterium smegmatis; conditions: Mycolicibacterium smegmatis
Description: Mutants resistant to compound 1 were isolated on Middlebrook 7H10 medium plus 10% (vol/vol) oleic albumin dextrose catalase (OADC) supplement (Becton Dickinson) containing compound 1 at 4× MIC. Resistance was confirmed by measuring the mutant MIC values essentially as described previously by Collins and Franzblau ([17]).

[10] = system: Vero cells; assay: In vitro cytotoxicity assay (MTT); assay type: cell-based, African green monkey; conditions: Chlorocebus sabaeus, 72 h
Procedure: Vero epithelial cells (from African green monkey; ATCC CCL-81) were cultured in Dulbecco's modified Eagle's medium (DMEM) supplemented with 10% fetal bovine serum (FBS) and maintained in a humidified incubator (37°C in 5% CO2). Cells were dislodged with a cell scraper, collected by centrifugation, resuspended in fresh medium at ∼10^6 cells/ml, dispensed into 96-well microtiter plates ([…]), and incubated for 18 h at 37°C. Twofold serial dilutions of test compounds in DMEM with FBS were subsequently added, and cells were incubated for another 72 h. In triplicate studies, the cytopathic effects of compounds were evaluated colorimetrically by using the 3-(4,5-dimethyl-2-thiazolyl)-2,5-diphenyl-2H-tetrazolium bromide (MTT) cell proliferation assay (ATCC). IC50 data were obtained from dose-response curves plotted by using GraphPad Prism 5.

[11] = system: M. tuberculosis H37Rv; assay: microbe, parasite or virus in culture; assay type: cell-based; conditions: Mycobacterium tuberculosis, read-out: MIC on Middlebrook 7H10 agar
[12] = system: M. tuberculosis H37Rv; assay type: in vivo, C57BL/6J mice
[13] = system: M. tuberculosis H37Rv; design: species or system C57BL/6J mice; conditions: mouse, in vivo
[14] = system: M. tuberculosis H37Rv; assay: Time-kill assay; assay type: cell-based
[15] = mouse, po, Terminal t1/2, mouse

## CCOc1ccc(Cl)c2c1B(O)O[C@@H]2CN [Compound 13]
[1]
  EC50: > 150 µM
[2]
  MIC: 0.02 µg/mL (≈ 0.0828 µM)
[3]
  EC50: 80 ± 5.7 µM
[4]; mouse
  α-t1/2 % AUC: 2 % AUC
  β-t1/2 % AUC: 98 % AUC
[4]; mouse, iv
  AUC(0-inf): 51600 ng·h/mL
  Cmax: 13600 ng/mL
  MRT: 5.4 h
  Vd: 3.14 L/kg
  clearance: 9.7 mL/min/kg
[4]; mouse, iv, α-t1/2, mouse
  half-life: 0.1 h
[4]; mouse, iv, β-t1/2, mouse
  half-life: 3.83 h
[4]; mouse, po
  AUC(0-t): 47500 ng·h/mL
  Cmax: 6400 ng/mL
  Tmax: 0.25 h
  bioavailability: 92%
[4]; [15]
  half-life: 3.1 h
[5]
  fraction unbound: 0.77
[6]
  EC50: 20.5 ± 2.1 µM
[7]
  Kd: 0.075 µM
  No. of sites: 1.19
  ΔGap: -9.7 kcal/mol
  ΔHap: -4.2 kcal/mol
  −TΔSap: -5.5 kcal/mol
[8]
  IC50: 0.06 µM

## CCOc1cccc2c1B(O)OC2CN (stereo not drawn) [Compound 1]
[9]; ATCC700084, M. smegmatis ATCC 700084, liquid culture
  MIC: 1 µg/mL (≈ 4.83 µM)
[9]; ATCC700084, M. smegmatis RM1 leuS Δ421–462, liquid culture
  MIC: > 256 µg/mL
[2]
  MIC: 0.26 µg/mL (≈ 1.26 µM)
[10]
  EC50: > 50 µM
[4]; CD-1, mouse, po
  AUC(0-t): 15000 ng·h/mL
  Cmax: 4330 ng/mL
  bioavailability: 55%
[8]; read-out: IC50 M.tb LeuRS
  IC50: 0.28 µM

## COc1c(N2C[C@@H]3CCCN[C@@H]3C2)c(F)cc2c(=O)c(C(=O)O)cn(C3CC3)c12 [Moxifloxacin, moxifloxacin, reference compound]
[2]; M. tuberculosis H37Rv, Fig. 6
  MIC values used in kill kinetics experiment: 0.06 µg/mL (≈ 0.149 µM)
[11]
  MIC: 0.08 µg/mL (≈ 0.199 µM)

## CC(=O)NC[C@H]1CN(c2ccc(N3CCOCC3)c(F)c2)C(=O)O1 [Linezolid, linezolid]
[12]; mouse, in vivo
  reduction in CFU: 2.6 log10
[1]
  EC50: 27.3 ± 10.8 µM
[2]
  MIC values used in kill kinetics experiment: 0.6 µg/mL (≈ 1.78 µM)
[3]
  EC50: > 150 µM
[6]
  EC50: > 150 µM

## CCOc1ccc(F)c2c1B(O)O[C@@H]2CN [Compound 12]
[1]
  EC50: > 150 µM
[2]
  MIC: 0.05 µg/mL (≈ 0.222 µM)
[3]
  EC50: 23 ± 1.4 µM
[4]; mouse
  α-t1/2 % AUC: 7 % AUC
  β-t1/2 % AUC: 93 % AUC
[4]; mouse, iv
  AUC(0-inf): 26800 ng·h/mL
  Cmax: 13700 ng/mL
  MRT: 3.4 h
  Vd: 3.81 L/kg
  clearance: 18.6 mL/min/kg
[4]; mouse, iv, α-t1/2, mouse
  half-life: 0.11 h
[4]; mouse, iv, β-t1/2, mouse
  half-life: 2.53 h
[4]; mouse, po
  AUC(0-t): 23800 ng·h/mL
  Cmax: 5000 ng/mL
  Tmax: 1 h
  bioavailability: 89%
[4]; [15]
  half-life: 2.7 h
[5]
  fraction unbound: 0.84
[6]
  EC50: 39.5 ± 9.2 µM
[8]; read-out: IC50 M.tb LeuRS
  IC50: 0.08 µM

## CCOc1ccc(Br)c2c1B(O)O[C@@H]2CN [Compound 14]
[12]; 30 mg/kg QD, 8 weeks, lungs
  reduction in CFU: 2.4 log10
[13]
  efficacy in murine model of acute TB infection: more active at lower doses than linezolid
[1]
  EC50: > 150 µM
[2]; M. tuberculosis H37Rv, Fig. 6
  MIC values used in kill kinetics experiment: 0.013 µg/mL (≈ 0.0455 µM)
[2]
  MIC: 0.02 µg/mL (≈ 0.0699 µM)
[14]
  in vitro kill kinetics profile: very similar to that of the bacteriostatic protein synthesis inhibitor linezolid
[3]
  EC50: 106 ± 37.5 µM
[4]; mouse
  α-t1/2 % AUC: 5 % AUC
  β-t1/2 % AUC: 95 % AUC
[4]; mouse, iv
  AUC(0-inf): 43700 ng·h/mL
  Cmax: 17100 ng/mL
  MRT: 4.7 h
  Vd: 3.22 L/kg
  clearance: 11.4 mL/min/kg
[4]; mouse, iv, α-t1/2, mouse
  half-life: 0.05 h
[4]; mouse, iv, β-t1/2, mouse
  half-life: 3.4 h
[4]; mouse, po
  AUC(0-t): 57600 ng·h/mL
  Cmax: 6300 ng/mL
  Tmax: 0.5 h
  bioavailability: 100%
[4]; [15]
  half-life: 3.6 h
[6]
  EC50: 21.5 ± 6.4 µM
[11]
  MIC: 0.2 µg/mL (≈ 0.699 µM)
[8]
  IC50: 0.08 µM

Reference: publication PMC5038265 (Antimicrobial Agents and Chemotherapy, 2016)
